From ChEMBL document CHEMBL1201862, “PubChem BioAssay data set” (2004)
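Five compound concentrations were applied to cells in 96-well plates for 48 hours; endpoints were derived by simple linear interpolation of the resulting dose-response curve. The concentration for 50% growth inhibition is given as GI50.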 Activity calls are given as the source filed them. Rule as the data show it: active = GI50 up to about 1.1 µM and inactive = higher.

Experiments:
Test in all cases: NCI tumour cell line growth inhibition, 48 h
786-0 = test system: 786-0
ACHN = test system: ACHN
CCRF-CEM = test system: CCRF-CEM
HCC 2998 = test system: HCC 2998
HOP-92 = test system: HOP-92
K562 = test system: K562
Malme-3M = test system: Malme-3M
OVCAR-4 = test system: OVCAR-4
OVCAR-5 = test system: OVCAR-5
SF-295 = test system: SF-295
SK-MEL-28 = test system: SK-MEL-28
SN12C = test system: SN12C
SNB-19 = test system: SNB-19
A498 = test system: A498
MCF7 = test system: MCF7
MDA-MB-231 = test system: MDA-MB-231
PC-3 = test system: PC-3
T47D = test system: T47D

Compound | GI50 (786-0) | GI50 (ACHN) | GI50 (CCRF-CEM) | GI50 (HCC 2998) | GI50 (HOP-92) | GI50 (K562) | GI50 (Malme-3M) | GI50 (OVCAR-4) | GI50 (OVCAR-5) | GI50 (SF-295) | GI50 (SK-MEL-28) | GI50 (SN12C) | GI50 (SNB-19) | GI50 (A498) | GI50 (MCF7) | GI50 (MDA-MB-231) | GI50 (PC-3) | GI50 (T47D)
COC(=O)C(=O)C(C(=O)C(=O)Nc1cc(C)ccc1C)c1nc2ccc(C(=O)c3ccccc3)cc2nc1O (configuration not stated) | > 100 µM (inactive) | > 100 µM (inactive) | 42.2 µM (inactive) | > 100 µM (inactive) | 45.8 µM (inactive) | 31 µM (inactive) | > 100 µM (inactive) | > 100 µM (inactive) | 43.1 µM (inactive) | 83.6 µM (inactive) | > 10 µM (inactive) | > 100 µM (inactive) | > 100 µM (inactive) |  |  |  |  | 
NC(=S)N/N=C1/C(=O)N(c2ccc(Cl)cc2Cl)C(=O)C(=O)C1c1nc2ccccc2s1 (configuration not stated) | > 100 µM (inactive) | > 100 µM (inactive) |  | > 100 µM (inactive) | > 100 µM (inactive) | > 100 µM (inactive) | > 100 µM (inactive) | > 100 µM (inactive) | > 100 µM (inactive) | > 100 µM (inactive) | > 100 µM (inactive) | > 100 µM (inactive) | > 100 µM (inactive) |  |  |  |  | 
COc1cc(Cl)cc(N(O)C(C)=O)c1OCc1ccccc1 | 61.8 µM (inactive) | 63.4 µM (inactive) | 38.1 µM (inactive) | > 100 µM (inactive) | > 100 µM (inactive) | 75.9 µM (inactive) | > 100 µM (inactive) | > 100 µM (inactive) | > 100 µM (inactive) | 66.2 µM (inactive) | > 100 µM (inactive) | > 100 µM (inactive) | 80.9 µM (inactive) | > 100 µM (inactive) |  |  |  | 
COc1ccc(NC(=O)CC/C(CC(=O)C(C)(C)C)=N\NC(=O)C(=O)NN)cc1 | > 100 µM (inactive) | > 100 µM (inactive) | > 100 µM (inactive) | > 100 µM (inactive) | 56.5 µM (inactive) | > 100 µM (inactive) | > 100 µM (inactive) | > 100 µM (inactive) | > 100 µM (inactive) | > 100 µM (inactive) | > 100 µM (inactive) | > 100 µM (inactive) | > 100 µM (inactive) | > 100 µM (inactive) |  |  |  | 
Cc1ccc(NC(=O)C(=O)C2C(=O)NC(=O)NC2=O)c(C)c1 | > 100 µM (inactive) | > 100 µM (inactive) | > 100 µM (inactive) | > 100 µM (inactive) | > 100 µM (inactive) | > 100 µM (inactive) | > 100 µM (inactive) | > 100 µM (inactive) | > 100 µM (inactive) | > 100 µM (inactive) | > 100 µM (inactive) | 14.9 µM (inactive) | > 100 µM (inactive) | > 100 µM (inactive) |  |  |  | 
C[N+](C)(C)CC(=O)N/N=C(\C(=O)Nc1ccc(Cl)cc1)C1C(=O)N(c2ccccc2)N=C1N (configuration not stated) | > 100 µM (inactive) | > 100 µM (inactive) | > 100 µM (inactive) | > 100 µM (inactive) | > 100 µM (inactive) | > 100 µM (inactive) | > 100 µM (inactive) | > 100 µM (inactive) | > 100 µM (inactive) |  | > 100 µM (inactive) | > 100 µM (inactive) | > 100 µM (inactive) | > 100 µM (inactive) |  |  |  | 
CN(C(=O)C12C3C4C1C1C2C3C41I)C(C)(C)C (configuration not stated) | > 100 µM (inactive) | 98.9 µM (inactive) |  | > 60 µM (inactive) |  |  | > 95.9 µM (inactive) | > 100 µM (inactive) | > 100 µM (inactive) | > 100 µM (inactive) | > 100 µM (inactive) | > 100 µM (inactive) | > 100 µM (inactive) | 53.8 µM (inactive) |  |  |  | 
N#CC(C(=O)/C(=N/NC(=O)c1ccccc1O)C(C#N)c1ccccc1)c1ccccc1 (configuration not stated) | > 100 µM (inactive) | > 100 µM (inactive) |  | > 100 µM (inactive) | > 100 µM (inactive) |  | > 100 µM (inactive) | > 100 µM (inactive) |  | > 100 µM (inactive) | > 100 µM (inactive) | > 100 µM (inactive) |  | > 100 µM (inactive) |  |  |  | 
Nc1ccc2ncc(NCc3ccc(F)cc3)nc2c1 | > 100 µM (inactive) | 64.9 µM (inactive) | > 100 µM (inactive) | > 100 µM (inactive) | 53.1 µM (inactive) | 87.9 µM (inactive) | > 100 µM (inactive) | 92.3 µM (inactive) | > 100 µM (inactive) | 56.2 µM (inactive) | > 100 µM (inactive) | 87.5 µM (inactive) | > 100 µM (inactive) |  |  |  |  | 
CCOC(=O)c1c(-c2ccc(Cl)cc2)c(C#N)c(=S)n(C2OC(COC(C)=O)C(OC(C)=O)C(OC(C)=O)C2OC(C)=O)c1C (configuration not stated) | > 100 µM (inactive) | > 100 µM (inactive) | > 100 µM (inactive) | > 100 µM (inactive) | 0.125 µM (active) | > 100 µM (inactive) | > 100 µM (inactive) | 90.2 µM (inactive) | > 100 µM (inactive) | > 100 µM (inactive) | > 100 µM (inactive) | > 100 µM (inactive) | > 100 µM (inactive) | 74 µM (inactive) | > 100 µM (inactive) | > 100 µM (inactive) | 0.759 µM (active) | > 100 µM (inactive)
